Reference: PMC7496275, “Pentathiepins: A Novel Class of Glutathione Peroxidase 1 Inhibitors that Induce Oxidative Stress, Loss of Mitochondrial Membrane Potential and Apoptosis in Human Cancer Cells” (Chemmedchem, 2020)

Assay: Stability in presence of GSH by APCI-MS
Format: physicochemical
Details: 10 mM GSH, 23 °C, up to 1 h
Experimental: It has been reported that pentathiepins are instable in the presence of thiols such as GSH.20 Thus, the stability of a representative pentathiepin, 4, in the presence of GSH was studied first by APCI‐MS. Incubations of 4 in the presence of 10 mM GSH, a biologically relevant concentration, were monitored at 23 °C for a period up to 1 h. […] Next, the stability of 4 was studied by RP‐HPLC in the same buffer and with the same GSH concentration (0.25 mM) used in the GPx assay (see below). Over the course of a 70 min incubation a nearly 30 % loss of the pentathiepin (Figure S32) was observed. However, since the GPx assay is only run for 20 min, the direct reaction between 4 and GSH would only account for a ca. 10 % loss of pentathiepin under assay conditions.

- stability in presence of GSH (mass spectrum): No changes in the mass spectrum
SMILES: CCOc1c2c(c3cnc4cc(C)c(C)cc4n13)SSSSS2 [Compound 4]
